Assay results: patent US20100035934A1, “PYRIDINYL-PYRAZOLE DERIVATIVES AND THEIR USE AS POTASSIUM CHANNEL MODULATORS” (NeuroSearch A/S, priority 2007, published 2010)

biological target: T1, hSK3 channels (Homo sapiens, UniProt Q9UGI6); assay: Whole-cell patch-clamp recording of ionic current through SK channels (subtype 3) in HEK293 cells expressing hSK3; assay type: cell-based; details: baseline current at -75 mV, free Ca2+ 0.3-0.4 μM, room temperature
T1 construct: expressed in transfected cells; host or cells: HEK293
Procedure: The ionic current through small-conductance Ca^2+-activated K^+ channels (SK channels, subtype 3) is recorded using the whole-cell configuration of the patch-clamp technique.
HEK293 tissue culture cells expressing hSK3 channels were grown in DMEM (Dulbecco's Modified Eagle Medium) supplemented with 10% FCS (foetal calf serum) at 37° C. in 5% CO2. At 60-80% confluency, cells were harvested by trypsin treatment and seeded on cover slips.
Experiments are carried out on one of several patch-clamp set-ups. Cells plated on coverslips are placed in a 15 μl perfusion chamber (flowrate ˜1 ml/min) mounted on an IMT-2 microscope. The microscopes are placed on vibration-free tables in grounded Faraday cages. All experiments are performed at room temperature (20-22° C.). EPC-9 patch-clamp amplifiers (HEKA-electronics, Lambrect, Germany) are connected to Macintosh computers via ITC16 interfaces. Data are stored directly on the hard-disk and analysed by IGOR software (Wavemetrics, Lake Oswega, Oreg., USA).
The whole-cell configuration of the patch-clamp technique is applied. In short: The tip of a borosilicate pipette (resistance 2-4 MΩ) is gently placed on the cell membrane using remote control systems. Light suction results in the formation of a giga seal (pipette resistance increases to more than […]) and the cell membrane underneath the pipette is then ruptured by more powerful suction. Cell capacitance is electronically compensated and the resistance between the pipette and the cell interior (the series resistance, Rs) is measured and compensated for. Usually the cell capacitance ranges from 5 to 20 pF (depending on cell size) and the series resistance is in the range 3 to 6 MΩ. Rs—as well as capacitance compensation are updated during the experiments (before each stimulus). All experiments with drifting Rs-values are discharged. Leak-subtractions are not performed.
The extracellular (bath) solution contains (in mM): 154 mM KCl, 0.1 CaCl2, 3 MgCl2, 10 HEPES (pH=7.4 with HCl). The test compound was dissolved 1000 times in DMSO from a concentrated stock solution and then diluted in the extracellular solution.
The intracellular (pipette) solution contained: 154 mM KCl, 10 mM HEPES, 10 mM EGTA. Concentrations of CaCl2 and MgCl2 needed to obtain the desired free concentrations of Ca^2+ (0.3-0.4 μM, Mg^2+ always 1 mM) were calculated by EqCal software (Cambridge, UK) and added.
After establishment of the whole-cell configuration, voltage-ramps (normally −80 to +80 mV) are applied to the cell every 5 seconds from a holding potential of 0 mV. […] Active compounds are quantified by calculating the change in baseline current at −75 mV. […]

Structure (SMILES)	The SC100 (Stimulating Concentration required for increasing the baseline current by 100%)
Clc1ccc(Nc2cccc(-n3cccn3)n2)c(Cl)c1 [Compound A8, (2,4-Dichloro-phenyl)-(6-pyrazol-1-yl-pyridin-2-yl)-amine]	0.3 µM
Cc1cc(C)n(-c2cccc(Nc3ccc(Cl)cc3)n2)n1 [Compound A1, (4-Chloro-phenyl)-[6-(3,5-dimethyl-pyrazol-1-yl)-pyridin-2-yl]-amine]	0.03 µM
CNc1cc(-n2nc(C)cc2C)nc(Nc2ccc(Cl)cc2)c1N [Compound D1, 3-Amino-2-(4-chlorophenylamino)-6-(3,5-dimethylpyrazol-1-yl)-4-methylamino-pyridine]	0.1 µM
Cc1cc(C)n(-c2cccc(Nc3ccc(F)c(F)c3)n2)n1 [Compound C4, (3,4-Difluoro-phenyl)-[6-(3,5-dimethyl-pyrazol-1-yl)-pyridin-2-yl]-amine]	0.4 µM
